# Key:
# [1] = system: human chondrocytes; assay: Excretion of degraded (TCA-soluble) 125I-collagenase-3 from human chondrocytes; type: cell-based
# Method: (§1) Excretion of degraded matrix metalloproteinase is preferably evaluated by performing steps (a) through (e) of the internalization assay described above, collecting the media overlying the cells after incubating for 15 min to I hr, precipitating intact proteins from the collected media (e.g., incubating for 2 hr with 20% trichloroacetic acid in ethanol and 2% bovine serum albumin), pelleting the precipitated intact proteins, and measuring the label in the supernatant (e.g., by gamma counting ^125I).
# (§2) Human tissue (articular cartilage and synovium) was obtained at surgery or autopsy and was prepared as follows. Tissue was minced in a laminar flow hood, then incubated in sterile filtered serum-free Dulbecco's modified Eagle's medium (50 ml) containing trypsin (0.25%) for 1 h at 37° C. on an orbital shaker. […]
# (§3) As receptor-mediated processing of collagenase-3 culminates in lysosomal degradation and extracellular release of the ligand, binding and degradation assays as above were performed and measured the presence of degraded (TCA-soluble) ^125I-collagenase-3 in the media overlying cells. […]
# [2] = system: human chondrocytes; assay: Binding of 125I collagenase-3 to human chondrocytes; conditions: osteoarthritis chondrocytes, 10 μM b.i.d. for three days; p<0.05
# Method: (§4) For all binding experiments, cells were seeded into 2.0 cm^2 wells. After the cells reached approximately 95% confluence, the medium was replaced with fresh medium containing 1 mg/ml BSA and the cells were assayed for binding 4 h later. The cells were first washed with maintenance medium, then incubated in the same medium with 0.01% Tween 80 containing ^125I-rat collagenase-3 or other iodinated ligands at 4° C. for 2 h. Non-specific binding was assessed by adding a 50-100-fold excess of cold ligand to half the wells, while an equivalent volume of buffer was added to the remaining wells. After incubation, the wells were washed three times with ice-cold MEM (0.5 ml). The cells were then lysed with 500 μl of 1 M NaOH and the lysates were counted on a gamma counter. Protein labeling with ^125I was done using the chloramine T method (Greenwood et al., 1963, Biochem. J. 89:114). The proteins had specific activities ranging from 9 to 27 μCi/μg.
# as §2
# [3] = system: UMR 106-01 cells; assay: Competition for 125I collagenase-3 binding in UMR 106-01 cells; design: species or system rat; conditions: 125I-rat collagenase-3
# Method: as §4
# These proteins were used as competitors in a series of binding assays in UMR cells using ^125I mouse collagenase-3. Radioactive labeling and binding assays were performed as in Example 1.
# [4] = system: normal rat osteoblasts; assay: Internalization of 125I-rat collagenase-3 in normal rat osteoblasts; type: cell-based; design: reduction of intracellular accumulation of 125I-collagenase: dose or concentration left out as unconfirmed
# Method: Previous work has shown that the rat collagenase-3 endocytosis receptor system is present on UMR 106-01 rat osteosarcoma cells (Omura et al, 1994, J. Biol. Chem. 269:24994). To determine whether the receptor is present in other cells, several cell types were tested for their ability to bind rat collagenase-3. These cell types were normal rat osteoblasts, rat embryo fibroblasts, the rat epithelial breast carcinoma cell line BC-1, mouse NIH 3T3 fibroblasts, the human osteosarcoma cell line SAOS-2, and the rat osteosarcoma cell lines ROS 17/2.8 and UMR 106-01. The human osteosarcoma cell line SAOS-2 (ATCC HTB 85) and the mouse embryo fibroblast cell line NIH 3T3 (ATCC CRL 1658) were cultured according to recommendations of the American Type Culture Collection, Rockville, Md. UMR 106-01 rat osteosarcoma cells were cultured as described in Roswit et al., 1992, Arch. Biochem. Biophys. […]
# Although the low density lipoprotein receptor-related protein is not required for rat collagenase-3 binding to the cell, it might be required for ligand internalization. […] The cell suspension was then centrifuged, and the radioactivity associated with cell pellets (defining internalized ^125I-proteins) was measured at each time point.
# The ability of receptor-associated protein to inhibit internalization of ^125I-rat collagenase-3 in UMR 106-01 osteoblastic cells and normal rat osteoblasts was determined next. […]
# [5] = system: human chondrocytes; assay: Internalization of 125I collagenase-3 by human chondrocytes; type: cell-based; conditions: p<0.001
# Method: (§5) Although the low density lipoprotein receptor-related protein is not required for rat collagenase-3 binding to the cell, it might be required for ligand internalization. Therefore, internalization assays were performed with ^125I-rat collagenase-3 using MEF-1 and MEF-2 cells as follows. After binding 125I-rat labeled proteins as above, the cells were washed three times with cold modified Eagle's media (0.5 ml) to remove unbound ligand. The cells were then warmed to 37° C. by the addition of prewarmed modified Eagle's media (0.25 ml), and incubated at 37° C. for selected intervals. At each time point, the media were collected, and the cells were washed once with ice-cold MEM, then incubated with 0.25% Pronase®-E in modified Eagle's media for 15 min at 4° C. to strip cell surface proteins. The cell suspension was then centrifuged, and the radioactivity associated with cell pellets (defining internalized ^125I-proteins) was measured at each time point.
# Human tissue (articular cartilage and synovium) was obtained at surgery or autopsy and was prepared as follows. […]
# To determine whether the decreased collagenase-3 binding in osteoarthritis tissues correlated with reduced receptor function, the amount of ^125I collagenase which was internalized by osteoarthritis and control chondrocytes was determined as described in Example 1. […]
# [6] = system: synoviocytes; assay: Internalization of 125I collagenase-3 by human synoviocytes; type: cell-based; conditions: compared to chondrocytes
# Method: as §5, §2
# [7] = system: human synoviocytes; assay: Excretion of degraded (TCA-soluble) 125I-collagenase-3 from human synoviocytes; type: cell-based
# Method: as §1, §2, §3
# [8] = system: UMR 106-01 cells; assay: Internalization assay in UMR 106-01 cells; type: cell-based, rat; design: reduction of intracellular accumulation of 125I-collagenase: dose or concentration left out as unconfirmed
# Method: as §5
# It is known that RAP inhibits internalization of ligands by the low density lipoprotein receptor-related protein (Kounnas et al., 1996, J. Biol. Chem 271:6523). Therefore, internalization assays were performed using ^125I-labeled rat collagenase-3 as a ligand and receptor-associated protein as a competitor. Human receptor-associated protein from the pGEX-receptor-associated protein expression vector (provided by Dr. Joachim Herz, University of Texas Southwestern Medical Center, Dallas, Tex.) was expressed in bacteria and prepared as described in Herz et al., 1991, J. Biol. Chem. 266:21232.
# To investigate the mechanism by which RAP regulates internalization of collagenase-3, an experiment was performed where excess unlabeled RAP or rat collagenase-3 was prebound to UMR 106-01 cells. Binding and internalization of ^125I-labeled rat collagenase-3 and RAP were then allowed to proceed.
# [9] = 3 nM 125I-rat collagenase-3 + 100 nM RAP, mean ± SEM, triplicate
compound,measurement,setting,value
"CC[C@H](C)C(=O)O[C@H]1C[C@H](O)C=C2C=C[C@H](C)[C@H](CC[C@@H](O)C[C@@H](O)CC(=O)[O-])[C@H]21.[Na+] [pravastatin, Pravastatin sodium]",enhancement of excretion of degraded collagenase-3,"[1]; osteoarthritis chondrocytes, 10 μM b.i.d. for three days, p<0.02",over 320%
same,increase in collagenase-3 binding,[2],30%
RAP: human receptor-associated protein expressed in bacteria from the pGEX expression vector; inhibits ligand internalization by LRP,effect on excretion of collagenase-3 (in words),[1]; chondrocytes,inhibited
same,competition with / inhibition of 125I-rat collagenase-3 binding (in words),[3],does not inhibit
same,"% of maximum internalization, Normal rat osteoblasts",[4]; [9],56.99 ± 4.49%
same,reduction of intracellular accumulation of 125I-collagenase,"[4]; receptor-associated protein in binding medium, normal mineralizing rat osteoblasts",43%
same,inhibition of collagenase-3 internalization,[5]; control chondrocytes,88.2%
same,reduction of collagenase-3 internalization,[5]; osteoarthritis chondrocytes,74.3%
same,inhibition of collagenase-3 internalization (in words),[6],similar
same,effect on excretion of collagenase-3 (in words),[7],inhibited
same,"% of maximum internalization, UMR 106-01 rat osteoblasts",[8]; [9],20.84 ± 1.98%
same,inhibition of internalization of 125I-rat collagenase-3,"[8]; FIG. 10, increasing concentrations of RAP",approximately 70%
same,effect of prebound excess unlabeled protein on rat collagenase-3 internalization,[8]; prebound to cells,inhibited
same,reduction of intracellular accumulation of 125I-collagenase,[8]; receptor-associated protein in binding medium,79%
